Data published in patent US9862726B2, “Opioid receptor modulating oxabicyclo[2.2.2]octane morphinans” (PURDUE PHARMA L.P., priority 2013, dated 2018).
Read-outs that look alike come from different tables or passages of the source.

Tests used:
μ-opioid receptor [1] = target: T1, μ-opioid receptor (Homo sapiens (Human), UniProt P35372); assay: μ-opioid receptor [35S]GTPγS functional assay (HEK-293 cells); format: biochemical; conditions: for Emax: HEK-293 cells, relative to DAMGO
Experimental: (§1) [^35S]GTPγS functional assays were conducted using freshly thawed μ-receptor membranes prepared in-house from a cell line expressing recombinant μ opioid receptor in a HEK-293, CHO or U-2 OS cell background, or purchased from a commercial source (Perkin Elmer, Shelton, Conn.; or DiscovRx, Fremont, Calif.). Assay reactions were prepared by sequentially adding the following reagents to binding buffer (100 mM NaCl, 10 mM MgCl2, 20 mM HEPES, pH 7.4) on ice (final concentrations indicated): membrane protein (0.026 mg/mL), saponin ([…]), GDP ([…]) and [^35S]GTPγS (0.20 nM; Perkin Elmer, Shelton, Conn.). The prepared membrane solution (190 μl/well) was transferred to 96-shallow well polypropylene plates containing 10 μl of 20× concentrated stock solutions of the agonist [D-Ala^2, N-methyl-Phe^4 Gly-ol^5]-enkephalin (DAMGO) prepared in dimethyl sulfoxide (DMSO). Plates were incubated for 30 min at about 25° C. with shaking. Reactions were terminated by rapid filtration onto 96-well Unifilter GF/B filter plates (Perkin Elmer, Shelton, Conn.) using a 96-well tissue harvester (Perkin Elmer, Shelton, Conn.) followed by three filtration washes with 200 μl of ice-cold wash buffer (10 mM NaH2PO4, 10 mM Na2HPO4, pH 7.4). Filter plates were subsequently dried at 50° C. for 2-3 hours. BetaScint scintillation cocktail (Perkin Elmer, Shelton, Conn.) was added (50 μl/well) and plates were counted using a Packard Top-Count for 1 min/well. Data were analyzed using the sigmoidal dose-response curve fitting functions in GraphPad PRISM v. 3.0, or an in-house function for non-linear, sigmoidal dose-response curve-fitting. [^35S]GTPγS functional assays can also be conducted using freshly thawed μ-receptor membranes prepared from a cell line expressing recombinant μ opioid receptor in a CHO-K1 cell background.
(§2) μ GTP EC50 is the concentration of a compound providing 50% of the maximal response for the compound at a μ-opioid receptor.
(§3) μ GTP Emax (%) is the maximal effect elicited by a compound relative to the effect elicited by DAMGO, a standard μ agonist.
In TABLE 4, activity response of certain Compounds of the Invention to the μ- and κ-opioid receptors was determined as described above for functional assays using HEK-293 cells.

κ-opioid receptor = κ-opioid receptor (Homo sapiens (Human), UniProt P41145); assay: κ-opioid receptor functional assay (U-2 OS cells); format: biochemical; conditions: for Emax: U-2 OS cells, relative to U69,593
Experimental: Functional [^35S]GTPγS binding assays were conducted as follows. κ opioid receptor membrane solution was prepared by sequentially adding final concentrations of 0.026 μg/μl κ membrane protein (in-house), 10 μg/mL saponin, 3 μM GDP and 0.20 nM [^35S]GTPγS to binding buffer (100 mM NaCl, 10 mM MgCl2, 20 mM HEPES, pH 7.4) on ice. The prepared membrane solution (190 μl/well) was transferred to 96-shallow well polypropylene plates containing 10 μl of 20× concentrated stock solutions of agonist prepared in DMSO. Plates were incubated for 30 min at a temperature of about 25° C. with shaking. Reactions were terminated by rapid filtration onto 96-well Unifilter GF/B filter plates (Perkin Elmer, Shelton, Conn.) using a 96-well tissue harvester (Packard) and followed by three filtration washes with 200 μl ice-cold binding buffer (10 mM NaH2PO4, 10 mM Na2HPO4, pH 7.4). Filter plates were subsequently dried at 50° C. for 2-3 hours. Fifty μl/well scintillation cocktail (Perkin Elmer, Shelton, Conn.) was added and plates were counted in a Packard Top-Count for 1 min/well.
κ GTP EC50 is the concentration of a compound providing 50% of the maximal response for the compound at a κ receptor.
κ GTP Emax (%) is the maximal effect elicited by a compound relative to the effect elicited by U69,593.
The following TABLE 5 provides results on the activity response of certain Compounds of the Invention at the μ- and κ-opioid receptors determined as described above using U-2 OS cells.

μ-opioid receptor [2] = target: T1, μ-opioid receptor; assay: μ-opioid receptor radioligand dose-displacement binding assay (HEK-293 cells)
Experimental: Radioligand dose-displacement binding assays for μ-opioid receptors used 0.3 nM [^3H]-diprenorphine (Perkin Elmer, Shelton, Conn.), with […] membrane protein/well in a final volume of 500 μl binding buffer (10 mM MgCl2, 1 mM EDTA, 5% DMSO, 50 mM HEPES, pH 7.4). Reactions were carried out in the absence or presence of increasing concentrations of unlabeled naloxone. All reactions were conducted in 96-deep well polypropylene plates for 2 hours at room temperature. Binding reactions were terminated by rapid filtration onto 96-well Unifilter GF/C filter plates (Perkin Elmer, Shelton, Conn.), presoaked in 0.5% polyethylenimine using a 96-well tissue harvester (Perkin Elmer, Shelton, Conn.) followed by performing three filtration washes with 500 μl of ice-cold binding buffer. Filter plates were subsequently dried at 50° C. for 2-3 hours. BetaScint scintillation cocktail (Perkin Elmer, Shelton, Conn.) was added (50 μl/well), and plates were counted using a Packard Top-Count for 1 min/well. The data were analyzed using the one-site competition curve fitting functions in GraphPad PRISM™ v. 3.0 or higher (San Diego, Calif.), or an in-house function for one-site competition curve-fitting.
(§4) In TABLE 3, binding affinity of certain Compounds of the Invention to the μ- and κ-opioid receptors was determined as described above using HEK-293 cells.

μ-opioid receptor [3] = target: T1, μ-opioid receptor; assay: μ-opioid receptor functional assay (U-2 OS cells); format: biochemical; conditions: for Emax: U-2 OS cells, relative to DAMGO
Experimental: as §1, §2, §3

[4] = target: recombinant human kappa opioid receptor (κ) (Homo sapiens (Human), UniProt P41145); assay: κ-opioid receptor radioligand dose-displacement binding assay (HEK-293 cells)
Experimental: Membranes from HEK-293 cells, CHO cells or U-2 OS cells expressing the recombinant human kappa opioid receptor (κ) were prepared by lysing cells in ice cold hypotonic buffer (2.5 mM MgCl2, 50 mM HEPES, pH 7.4) (10 mL/10 cm dish) followed by homogenization with a tissue grinder/Teflon pestle. Membranes from a cell line naturally expressing kappa opioid receptor can also be used. Membranes were collected by centrifugation at 30,000×g for 15 min at 4° C. and pellets were resuspended in hypotonic buffer to a final concentration of 1-3 mg/mL. Protein concentrations were determined using the BioRad protein assay reagent with bovine serum albumen as standard. Aliquots of κ receptor membranes were stored at −80° C.
Radioligand dose displacement assays used 0.4 nM [^3H]-U69,593 (GE Healthcare, Piscataway, N.J.; 40 Ci/mmole) with 15 μg membrane protein (recombinant κ opioid receptor expressed in HEK 293 cells; in-house prep) in a final volume of 200 μl binding buffer (5% DMSO, 50 mM Trizma base, pH 7.4). Non-specific binding was determined in the presence of 10 μM unlabeled naloxone or U69,593. All reactions were performed in 96-well polypropylene plates for 1 hour at a temperature of about 25° C. Binding reactions were terminated by rapid filtration onto 96-well Unifilter GF/C filter plates (Perkin Elmer, Shelton, Conn.) presoaked in 0.5% polyethylenimine (Sigma). Harvesting was performed using a 96-well tissue harvester (Perkin Elmer, Shelton, Conn.) followed by five filtration washes with 200 μl ice-cold binding buffer. Filter plates were subsequently dried at 50° C. for 1-2 hours. Fifty μl/well scintillation cocktail (Perkin Elmer, Shelton, Conn.) was added and plates were counted in a Packard Top-Count for 1 min/well.
as §4

In the case of `COc1ccc2c(c1)[C@]13CCN(CC4CC4)[C@H](C2)[C@]12CC[C@@](NC(=O)c1ccc(Cl)cc1)(CO2)C3` [Compound 20, N-((4bR,6S,8aS,9R)-11-(cyclopropylmethyl)-3-methoxy-5,6,7,8,9,10-hexahydro-9,4b-(epiminoethano)-8a,6-(epoxymethano)phenanthren-6-yl)-4-chlorobenzamide], the EC50 (μ-opioid receptor [1]) is reported as 52.4 ± 11.7 nM, the Emax (μ-opioid receptor [1]) is reported as 20.2 ± 0.48% and the EC50 (κ-opioid receptor) is reported as 3.24 ± 0.082 nM. The Emax (κ-opioid receptor) was 115 ± 2.85%, the Ki (μ-opioid receptor [2]) was 0.0247 ± 0.0035 µM and the EC50 (μ-opioid receptor [3]) was 3.23 ± 0.13 nM. The Emax (μ-opioid receptor [3]) was 102 ± 2.85% and the Ki [4] was 0.0006 ± 9.8e-05 µM.
With `COc1ccc2c(c1)[C@]13CCN(CC4CC4)[C@H](C2)[C@]12CC[C@@](N)(CO2)C3` [Compound 8, (4bR,6S,8aS,9R)-11-(cyclopropylmethyl)-3-methoxy-5,6,7,8,9,10-hexahydro-9,4b-(epiminoethano)-8a,6-(epoxymethano)phenanthren-6-amine] the EC50 (μ-opioid receptor [1]) was 1110 ± 242 nM, the Emax (μ-opioid receptor [1]) was 27.8 ± 2.17% and the EC50 (κ-opioid receptor) was 34.5 ± 3.61 nM. It also gave an Emax (κ-opioid receptor) of 112 ± 1.33%, a Ki (μ-opioid receptor [2]) of 0.773 ± 0.161 µM and an EC50 (μ-opioid receptor [3]) of 88.8 ± 20.6 nM. For the same compound, the Emax (μ-opioid receptor [3]) was 106 ± 2.96% and the Ki [4] was 0.00472 ± 0.00107 µM.
Compound `COc1ccc2c(c1)[C@]13CCN(CC4CC4)[C@H]([C@@H]2O)[C@]12CC[C@](O)(C3)C(=O)O2` [Compound 34, (4bR,6S,8aS,9R,10R)-11-(cyclopropylmethyl)-6,10-dihydroxy-3-methoxy-5,6,7,8,9,10-hexahydro-9,4b-(epiminoethano)-8a,6-(epoxymethano)phenanthren-15-one] has a Ki (μ-opioid receptor [2]; bound given in μM) greater than 20 µM and a Ki ([4]; bound given in μM) greater than 20 µM.
In the case of `COc1ccc2c(c1)[C@]13CCN(CC4CC4)[C@H](C2)[C@]12CC[C@@](N(C)C)(CO2)C3` [Compound 28, (4bR,6S,8aS,9R)-11-(cyclopropylmethyl)-3-methoxy-N,N-dimethyl-5,6,7,8,9,10-hexahydro-9,4b-(epiminoethano)-8a,6-(epoxymethano)phenanthren-6-amine], the EC50 (μ-opioid receptor [1]) is reported as 1920 ± 693 nM, the Emax (μ-opioid receptor [1]) is reported as 18.8 ± 1.46% and the EC50 (κ-opioid receptor) is reported as 132 ± 25.7 nM. It also gave an Emax (κ-opioid receptor) of 107 ± 2.4%, an EC50 (μ-opioid receptor [3]) of 339 ± 31.6 nM and an Emax (μ-opioid receptor [3]) of 68.7 ± 0.67%.
`COc1ccc2c(c1)[C@]13CCN(CC4CC4)[C@H](C2)[C@]12CC[C@@](N1CCCC1)(CO2)C3` [Compound 32, (4bR,6S,8aS,9R)-11-(cyclopropylmethyl)-3-methoxy-6-(pyrrolidin-1-yl)-5,6,7,8,9,10-hexahydro-9,4b-(epiminoethano)-8a,6-(epoxymethano)phenanthrene] gave an EC50 (μ-opioid receptor [1]) of 1380 ± 234 nM, an Emax (μ-opioid receptor [1]) of 20.7 ± 0.33% and an EC50 (κ-opioid receptor) of 26.6 ± 5.92 nM. The Emax (κ-opioid receptor) was 104 ± 3.61%, the EC50 (μ-opioid receptor [3]) was 255 ± 26.6 nM and the Emax (μ-opioid receptor [3]) was 69 ± 2.89%.
With `COc1ccc2c(c1)[C@]13CCN(CC4CC4)[C@H](C2)[C@]12CC[C@@](Nc1ccccc1)(CO2)C3` [Compound 30, (4bR,6S,8aS,9R)-11-(cyclopropylmethyl)-3-methoxy-N-phenyl-5,6,7,8,9,10-hexahydro-9,4b-(epiminoethano)-8a,6-(epoxymethano)phenanthren-6-amine] the EC50 (μ-opioid receptor [1]) was 83.6 ± 23.4 nM, the Emax (μ-opioid receptor [1]) was 20.3 ± 0.67% and the EC50 (κ-opioid receptor) was 0.14 ± 0.039 nM. For the same compound, the Emax (κ-opioid receptor) was 105 ± 3.53%, the EC50 (μ-opioid receptor [3]) was 9.93 ± 0.87 nM and the Emax (μ-opioid receptor [3]) was 69 ± 2.65%.
Work on `COc1ccc2c(c1)[C@]13CCN(CC4CC4)[C@H](C2)[C@]12CC[C@@](Nc1ccc(C(C)(C)C)cc1)(CO2)C3` [Compound 29, (4bR,6S,8aS,9R)—N-(4-tert-butyl)phenyl-11-(cyclopropylmethyl)-3-methoxy-5,6,7,8,9,10-hexahydro-9,4b-(epiminoethano)-8a,6-(epoxymethano)phenanthren-6-amine] yielded an EC50 (μ-opioid receptor [1]) greater than 20000 nM, an Emax (μ-opioid receptor [1]) of 7.5 ± 1.55% and an EC50 (κ-opioid receptor) of 3.08 ± 0.32 nM. For the same compound, the Emax (κ-opioid receptor) was 113 ± 4.41%, the EC50 (μ-opioid receptor [3]) was 2.02 ± 0.28 nM and the Emax (μ-opioid receptor [3]) was 43.3 ± 2.4%.
`COc1ccc2c(c1)[C@]13CCN(CC4CC4)[C@H](C2=O)[C@]12CC[C@](O)(C3)C(=O)O2` [Compound 33, (4bR,6S,8aS,9S)-11-(cyclopropylmethyl)-6-hydroxy-3-methoxy-5,6,7,8-tetrahydro-9,4b-(epiminoethano)-8a,6-(epoxymethano)phenanthrene-10,15(9H)-dione] gave a Ki (μ-opioid receptor [2]; bound given in μM) greater than 20 µM and a Ki [4] of 3.35 ± 0.325 µM.
`CN1CC[C@]23C[C@@]4(N)CC[C@@]2(OC4)[C@H]1Cc1ccc(O)cc13` [Compound 35, (4bR,6S,8aS,9R)-6-amino-11-methyl-5,6,7,8,9,10-hexahydro-9,4b-(epiminoethano)-8a,6-(epoxymethano)phenanthren-3-ol] showed an EC50 (μ-opioid receptor [1]) of 291 ± 23.2 nM and an Emax (μ-opioid receptor [1]) of 50.3 ± 2.33%.
With `CN[C@]12CC[C@@]3(OC1)[C@H]1Cc4ccc(O)cc4[C@@]3(CCN1CC1CC1)C2` [Compound 37, (4bR,6S,8aS,9R)-11-(cyclopropylmethyl)-6-(methylamino)-5,6,7,8,9,10-hexahydro-9,4b-(epiminoethano)-8a,6-(epoxymethano)phenanthren-3-ol] the EC50 (μ-opioid receptor [1]) was 3.44 ± 0.78 nM and the Emax (μ-opioid receptor [1]) was 19 ± 1%.
Compound `COc1ccc2c(c1)[C@]13CCN(CC4CC4)[C@H](C2)[C@]12CC[C@@](N1CCOCC1)(CO2)C3` [Compound 31, (4bR,6S,8aS,9R)-11-(cyclopropylmethyl)-3-methoxy-6-morpholino-5,6,7,8,9,10-hexahydro-9,4b-(epiminoethano)-8a,6-(epoxymethano)phenanthrene] has an EC50 (μ-opioid receptor [1]) of 887 ± 278 nM, an Emax (μ-opioid receptor [1]) of 9 ± 1.15% and an EC50 (κ-opioid receptor) of 30 ± 7.2 nM. The Emax (κ-opioid receptor) was 103.7 ± 0.33%, the EC50 (μ-opioid receptor [3]) was 147 ± 7.61 nM and the Emax (μ-opioid receptor [3]) was 38.7 ± 2.96%.
